Values quoted from earlier work in patent US20240315993A1, “ANTIPARASITIC COMPOUNDS” (Intervet Inc., priority 2021, published 2024).

What was measured:
[1] = test system: Yellow Fever Mosquito (Aedes aegypti); settings: Aedes aegypti larvae about 1 day old, 96-well plate, scored after 3 days; cited from earlier work
[2] = test system: Cabbage Looper (Trichoplusia ni); settings: Cabbage Looper second instar larvae, 128-well diet tray, 50 μg/cm^2, five to seven days, average of eight wells; cited from earlier work
[3] = test system: Beet Armyworm (Spodoptera exigua); settings: Beet Armyworm second instar larvae, 128-well diet tray, 50 μg/cm^2, five to seven days, average of eight wells; cited from earlier work

Structure (SMILES) | Test C: Bioassay on Yellow Fever Mosquito, mortality rating [1] | Test B: Bioassay on CL, percent mortality rating [2] | Test A: Bioassay on BAW, percent mortality rating [3]
Cc1c(NC(=O)c2cc(NC(=O)C3C(c4cc(Cl)cc(Cl)c4)C3(Cl)Cl)ccc2Cl)ccc2[nH]ccc12 (stereo not drawn) [c69] | A (80-100) | A (50-100) | A (50-100)
CC(C)(C)c1cc2cc(NC(=O)c3cc(NC(=O)C4C(c5cc(Cl)cc(Cl)c5)C4(Cl)Cl)ccc3Cl)ccc2[nH]1 (stereo not drawn) [c70] | A (80-100) | A (50-100) | A (50-100)
COC(=O)C(O)(c1ccc(NC(=O)c2cc(NC(=O)C3C(c4cc(Cl)cc(Cl)c4)C3(Cl)Cl)ccc2Cl)c(C)c1)C(F)(F)F (stereo not drawn) [c71] | A (80-100) | A (50-100) | A (50-100)
C=C(c1ccc(NC(=O)c2cc(NC(=O)C3C(c4cc(Cl)cc(Cl)c4)C3(Cl)Cl)ccc2Cl)c(C)c1)C(F)(F)F (stereo not drawn) [c72] | B (More than 0 - Less than 80) | A (50-100) | A (50-100)
CCn1ccc2cc(NC(=O)c3cc(NC(=O)C4C(c5cc(Cl)cc(Cl)c5)C4(Cl)Cl)ccc3Cl)ccc21 (stereo not drawn) [c73] | A (80-100) | A (50-100) | A (50-100)
Cc1cc(NC(=O)OC(C)(C)C)ccc1NC(=O)c1cccc(NC(=O)C2C(c3cc(Cl)c(Cl)c(Cl)c3)C2(Cl)Cl)c1 (stereo not drawn) [c74] | B (More than 0 - Less than 80) | A (50-100) | A (50-100)
Cc1cc(NC(=O)OC(C)(C)C)ccc1NC(=O)c1cccc(NC(=O)C2C(c3cc(Cl)cc(Cl)c3)C2(Cl)Cl)c1 (stereo not drawn) [c75] | B (More than 0 - Less than 80) | A (50-100) | A (50-100)
Cc1cc(N)ccc1NC(=O)c1cccc(NC(=O)C2C(c3cc(Cl)c(Cl)c(Cl)c3)C2(Cl)Cl)c1 (stereo not drawn) [c76] | A (80-100) | A (50-100) | A (50-100)
Cc1cc(N)ccc1NC(=O)c1cccc(NC(=O)C2C(c3ccc(Cl)c(Cl)c3)C2(Cl)Cl)c1 (stereo not drawn) [c77] | A (80-100) | A (50-100) | A (50-100)
Cc1cc(N)ccc1NC(=O)c1cccc(NC(=O)C2C(c3cc(Cl)cc(Cl)c3)C2(Cl)Cl)c1 (stereo not drawn) [c78] | A (80-100) | A (50-100) | A (50-100)
O=C(Nc1ccccc1)c1cc(NC(=O)C2C(c3cc(Cl)cc(Cl)c3)C2(Cl)Cl)cc(Cl)c1Cl (stereo not drawn) [c79] | A (80-100) | A (50-100) | A (50-100)
CNc1ccc(NC(=O)c2cc(NC(=O)C3C(c4cc(Cl)cc(Cl)c4)C3(Cl)Cl)cc(Cl)c2Cl)cc1 (stereo not drawn) [c80] | A (80-100) | A (50-100) | A (50-100)
Cc1cc(NC(=O)OC(C)(C)C)ccc1NC(=O)c1cc(NC(=O)C2C(c3cc(Cl)cc(Cl)c3)C2(Cl)Cl)ccc1Cl (stereo not drawn) [c81] | A (80-100) | A (50-100) | A (50-100)
Cc1cc(N)ccc1NC(=O)c1cc(NC(=O)C2C(c3cc(Cl)c(Cl)c(Cl)c3)C2(Cl)Cl)ccc1Cl (stereo not drawn) [c84] | A (80-100) | A (50-100) | A (50-100)
N#Cc1ccc(NC(=O)c2cc(NC(=O)C3C(c4cc(Cl)cc(Cl)c4)C3(Cl)Cl)ccc2Cl)c(C#N)c1 (stereo not drawn) [c85] | A (80-100) | A (50-100) | A (50-100)
CN1C(=O)CCc2cc(NC(=O)c3cc(NC(=O)C4C(c5cc(Cl)cc(Cl)c5)C4(Cl)Cl)ccc3Cl)ccc21 (stereo not drawn) [c86] | A (80-100) | A (50-100) | A (50-100)
CN1CCCc2cc(NC(=O)c3cc(NC(=O)C4C(c5cc(Cl)cc(Cl)c5)C4(Cl)Cl)ccc3Cl)ccc21 (stereo not drawn) [c87] | A (80-100) | A (50-100) | A (50-100)
O=C(Nc1ccc2c(c1)CCCN2)c1cc(NC(=O)C2C(c3cc(Cl)cc(Cl)c3)C2(Cl)Cl)ccc1Cl (stereo not drawn) [c88] | A (80-100) | A (50-100) | A (50-100)

Structure (SMILES) | Test C: Bioassay on Yellow Fever Mosquito, mortality rating [1] | Test B: Bioassay on CL, percent mortality rating [2] | Test A: Bioassay on BAW, percent mortality rating [3]
Cc1cc(N)ccc1NC(=O)c1cc(NC(=O)C2C(c3ccc(F)c(Cl)c3)C2(Cl)Cl)ccc1Cl (stereo not drawn) [c89] | A (80-100) | A (50-100) | A (50-100)
CC(=O)Nc1cccc(NC(=O)c2cc(NC(=O)C3C(c4cc(Cl)cc(Cl)c4)C3(Cl)Cl)ccc2Cl)n1 (stereo not drawn) [c90] | A (80-100) | A (50-100) | A (50-100)
N#Cc1ccc(NC(=O)c2cc(NC(=O)C3C(c4cc(Cl)cc(Cl)c4)C3(Cl)Cl)ccc2Cl)nc1N (stereo not drawn) [c91] | D (No activity noticed in this bioassay) | A (50-100) | A (50-100)
CS(=NC#N)c1ccc(NC(=O)c2cc(NC(=O)C3C(c4cc(Cl)cc(Cl)c4)C3(Cl)Cl)ccc2Cl)cc1 (stereo not drawn) [c92] | A (80-100) | A (50-100) | A (50-100)
O=C(Nc1ccc2c(ccn2CCF)c1)c1cc(NC(=O)C2C(c3cc(Cl)cc(Cl)c3)C2(Cl)Cl)ccc1Cl (stereo not drawn) [c93] | A (80-100) | A (50-100) | A (50-100)
O=C(Nc1ccc2[nH]c(-c3ccccc3)cc2c1)c1cc(NC(=O)C2C(c3cc(Cl)cc(Cl)c3)C2(Cl)Cl)ccc1Cl (stereo not drawn) [c94] | A (80-100) | A (50-100) | A (50-100)
Cc1cccc(NC(=O)c2cc(NC(=O)C3C(c4cc(Cl)cc(Cl)c4)C3(Cl)Cl)ccc2Cl)c1C#N (stereo not drawn) [c95] | A (80-100) | A (50-100) | A (50-100)
CN1Cc2ccc(NC(=O)c3cc(NC(=O)C4C(c5cc(Cl)cc(Cl)c5)C4(Cl)Cl)ccc3Cl)cc2C1 (stereo not drawn) [c96] | A (80-100) | A (50-100) | A (50-100)
CC(C)(C)OC(=O)Nc1cccc(NC(=O)c2cc(NC(=O)C3C(c4cc(Cl)cc(Cl)c4)C3(Cl)Cl)ccc2Cl)n1 (stereo not drawn) [c97] | D (No activity noticed in this bioassay) | A (50-100) | A (50-100)
CC(C)(C)OC(=O)Nc1cccc(NC(=O)c2cc(NC(=O)C3C(c4ccc(F)c(Cl)c4)C3(Cl)Cl)ccc2Cl)n1 (stereo not drawn) [c98] | A (80-100) | A (50-100) | A (50-100)
O=C(Nc1ccc2c(c1)CCN2)c1cc(NC(=O)C2C(c3cc(Cl)cc(Cl)c3)C2(Cl)Cl)ccc1Cl (stereo not drawn) [c99] | A (80-100) | A (50-100) | A (50-100)
CNc1ccc(NC(=O)c2cc(NC(=O)C3C(c4ccc(Br)c(Cl)c4)C3(Cl)Cl)ccc2Cl)c(C)c1 (stereo not drawn) [c100] | A (80-100) | A (50-100) | A (50-100)
Cc1cc(N)ccc1NC(=O)c1cc(NC(=O)C2C(c3ccc(Br)c(Cl)c3)C2(Cl)Cl)ccc1Cl (stereo not drawn) [c101] | A (80-100) | A (50-100) | A (50-100)
Cc1cc(NC(=O)OC(C)(C)C)ccc1NC(=O)c1cc(NC(=O)C2C(c3cc(Cl)cc(Br)c3)C2(Cl)Cl)ccc1Cl (stereo not drawn) [c102] | D (No activity noticed in this bioassay) | A (50-100) | A (50-100)
Cc1cc(N)ccc1NC(=O)c1cc(NC(=O)C2C(c3cc(Cl)cc(Br)c3)C2(Cl)Cl)ccc1Cl (stereo not drawn) [c103] | A (80-100) | A (50-100) | A (50-100)
CN1Cc2ccc(NC(=O)c3cc(NC(=O)C4C(c5cc(Cl)cc(Cl)c5)C4(Cl)Cl)ccc3Cl)cc2C1=O (stereo not drawn) [c104] | A (80-100) | A (50-100) | A (50-100)
CN1Cc2cc(NC(=O)c3cc(NC(=O)C4C(c5cc(Cl)cc(Cl)c5)C4(Cl)Cl)ccc3Cl)ccc2C1=O (stereo not drawn) [c105] | A (80-100) | A (50-100) | A (50-100)
